The values below come from patent publication US20200032249A1, “LABELING, ISOLATION, & ANALYSIS OF RNA FROM RARE CELL POPULATIONS” (priority 2017, published 2020).

For the assay, the system named is MDA231 cells expressing CD/UPRT in mouse lungs. Put plainly: signal-to-noise ratio of Flura-tagging and TU-tagging in vivo, lung colonization xenograft, RT-PCR. The note with it: 250 mg/kg, 12 h post injection. The procedure:
FIG. 3 a-g. Flura-tagging of mRNA in vivo. FIG. 3a—Schematic diagram of lung colonization xenograft assay used for evaluation of Flura-tagging/Flura-seq. Athymic mice were injected through the tail vein with 50,000 MDA231 cells expressing CD/UPRT and GFP-luciferase. Upon the development of detectable bioluminescent lung metastases (4 weeks), mice were treated with doxycycline to induce CD/UPRT expression and injected with 5-FC. Lungs were harvested, and Flura-tagged mRNAs were immunopurified. FIG. 3b—Comparison of signal-to-noise ratio of Flura-tagging and TU-tagging in vivo. Mice were injected with either 5-FC or TU, the Flura-tagged or TU-tagged mRNAs were purified 12 h post injection, and the relative fold enrichment of representative human housekeeping genes relative to representative murine housekeeping genes (mHPRT1, mLDH1, mPGK1 and mGAPDH), normalized to their corresponding unpurified inputs, were measured by RT-PCR (n=5, ±S.E.). FIG. 3c—Quantification of the number of human cells in the mouse lungs used for Flura-tagging. Half of the mouse lungs used for Flura-tagging in FIG. 3b was dissociated into single cells, and the number of RFP+ cells was quantified using flow cytometry. The total number of MDA231 cells per lung was estimated based on an assumption of 1.5×10^8 cells per mouse lung (20) (n=5). […] RNA reads were aligned to a hybrid genome containing the human and mouse genomes. […]

In the case of `Nc1nc(=O)[nH]cc1F` [5-FC, 5-fluorocytosine], the “enrichment of human mRNAs compared to mouse mRNAs” value was “over 1000 fold”.
